The results in this text go back to patent US10799605B2 (3B PHARMACEUTICALS GMBH, priority 2014, dated 2020).

In test [1] the target is T1, NTR1 (Homo sapiens (Human), UniProt P30989). Description: Radioligand binding assay NTR1 (example part I). The method, then: (§1) In order to determine the binding affinity of compounds comprising a radiolabel for NTR1, a radioligand binding assay was carried out. A radioligand is a radioactive biochemical substance that is used for diagnosis or for research-oriented study of cellular receptor systems of the body. In […] systems it is often used to quantify the binding of a test molecule to the binding site of radioligand. The higher the affinity of the molecule, the more radioligand is displaced from the binding site. The amount of bound radioligand can be measured by scintillation counting and thereby quantified. This assay is commonly used to calculate binding constants of molecules to receptors.
T1 sequence (P30989 whole entry): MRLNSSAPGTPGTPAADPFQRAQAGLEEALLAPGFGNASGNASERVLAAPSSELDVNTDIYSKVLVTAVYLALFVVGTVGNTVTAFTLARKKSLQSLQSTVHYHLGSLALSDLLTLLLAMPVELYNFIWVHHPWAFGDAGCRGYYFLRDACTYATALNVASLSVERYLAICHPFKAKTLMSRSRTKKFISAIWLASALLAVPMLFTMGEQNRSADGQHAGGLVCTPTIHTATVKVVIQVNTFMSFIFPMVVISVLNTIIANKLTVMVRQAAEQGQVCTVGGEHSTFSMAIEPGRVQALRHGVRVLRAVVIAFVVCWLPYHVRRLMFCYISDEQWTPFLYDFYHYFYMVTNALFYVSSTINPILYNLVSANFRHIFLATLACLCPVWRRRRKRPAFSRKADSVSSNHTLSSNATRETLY
(§2) The NTR1 radioligand binding assay was performed by Cerep (Celle l'Evescault, France; Catalog reference 0109) according to Vita et al., FEBS Lett., 1993, 317, 139-142. NTR1 was prepared from CHO cells recombinantly expressing the human receptor and incubated with 0.05 nM ^125I-(Tyr^3-neurotensin) and serial dilutions of the test compounds. […] The result for each test compound is expressed as IC50 concentration and provides a measure for the affinity of the test compound for NTR1.

The target in test [2] is T1, NTR1. In words: Functional Ca2+ mobilisation assay (example part I). Type of test: cell-based. The text has this:
Ca^2+ ions are usually kept at nanomolar levels in the cytosol of cells, and act in a number of signal transduction pathways as second messengers. […] Changes in calcium ion concentration in standard assay protocols can be readily detected with fluorescent dyes that emit light when changes in intracellular Ca^2+ ion concentration occur. Given the transient nature of these responses, they are often read with instrumentation that has ‘inject and read’ capability.
(§3) HT29 or NTR1-expressing HEK293 cells were trypsinized and seeded into black flat clear-bottom 96-well plates (Corning, Amsterdam, The Netherlands) at […] cells per well. After 24 h incubation at 37° C. and 5% CO2, cells were washed twice with wash buffer (130 mM NaCl, 5 mM KCl, 10 mM Hepes, 2 mM CaCl2, 10 mM Glucose, pH 7.4) and loaded with 100 μl of Ca5 dye (Molecular Devices, Biberach, Germany) for 1 h at 37° C. and 5% CO2. For agonist assays, serial dilutions of agonistic substances were added to the cells loaded with dye and the change of the fluorescent signal was recorded continually for approx. 90 s using a FlexStation II (Molecular Devices, Biberach, Germany). Addition of wash buffer served as a control. Thus, EC50 concentrations for each conjugate were computed and provided a measure for the potency of the substance. For antagonist assays, cells loaded with 100 μl of Ca5-dye were pre-incubated with serial dilutions of antagonistic substances for 30 min, before the EC80-concentration of agonist was added to the cells and the change of the fluorescent signal was recorded continually for approx. 90 s. Thus, IC50 concentrations were computed for each conjugate and provided a measure for the inhibitory activity of the conjugates at the NTR1.

For test [3], the target named is T1, NTR1. Description: Functional Ca2+ mobilisation assay (example part II). Type of test: cell-based. To be noted: antagonist assay.
Source text: Ca^2+ ions are usually kept at nanomolar levels in the cytosol of cells, and act in a number of signal transduction pathways as second messengers. […] Changes in calcium ion concentration in standard assay protocols can be readily detected with fluorescent dyes that emit light when changes in intracellular Ca2^+ ion concentration occur. Given the transient nature of these responses, they are often read with instrumentation that has ‘inject and read’ capability.
as §3, with “compound” for “conjugate”, “compounds” for “conjugates”

Test [4] concerns the target T1, NTR1. Description: Radioligand binding assay NTR1 (example part II). The settings on record: 0.05 nM 125I-(Tyr3-neurotensin), 60 min at 4° C.; read-out: IC50 [nM] RLB. On the procedure: as §1, §2

In turn, `COc1cccc(OC)c1-c1cc(C(=O)NC2(C(=O)O)C3CC4CC(C3)CC2C4)nn1-c1ccc(C(=O)N(C)CCCN(C)CCCN(C)C(=O)CCCC(=O)NCCCOCCOCCOCCCNC(=O)CCC(=O)N[C@@H](CCCCNC(=O)CN2CCN(CC(=O)O)CCN(CC(=O)O)CCN(CC(=O)O)CC2)C(=O)NCCCOCCOCCOCCCNC(=O)CCC(=O)NCCCC(=O)N[C@@H](CC(N)=O)C(=O)N[C@@H](C)C(=O)N[C@H](C(=O)N2CCC[C@H]2C(=O)N[C@@H](CC(N)=O)C(=O)N[C@@H](CC(C)C)C(=O)N[C@@H](CCCNC(=N)N)C(=O)NCC(=O)N[C@@H](CC(=O)O)C(=O)N[C@@H](CC(C)C)C(=O)N[C@@H](CCC(N)=O)C(=O)N[C@H](C(=O)N[C@@H](CC(C)C)C(=O)N[C@@H](C)C(=O)N[C@@H](CCC(N)=O)C(=O)N[C@@H](CCCCN)C(=O)N[C@H](C(=O)N[C@@H](C)C(=O)N[C@@H](CCCNC(=N)N)C(=O)N[C@H](C(N)=O)[C@@H](C)O)C(C)C)C(C)C)C(C)C)cc1C(C)C` (some centres unmarked) [(21)] registered an IC50 on NTR1 [1] of 10 nM. At NTR1 [2], this molecule had an EC50 of over 50000 nM and a concentration for half-maximal inhibition (IC50) of 18 nM.

As for `COc1cccc(OC)c1-c1cc(C(=O)NC2(C(=O)O)C3CC4CC(C3)CC2C4)nn1-c1ccc(C(=O)N(C)CCCN(C)CCCN(C)C(=O)CCCC(=O)NCCCC[C@H](NC(=O)CCC(=O)NCCCOCCOCCOCCCNC(=O)CCC(=O)NCCCOCCOCCOCCCNC(=O)CCC(=O)NCCCOCCOCCOCCCNC(=O)[C@H](CCCCNC(=O)CN2CCN(CC(=O)O)CCN(CC(=O)O)CCN(CC(=O)O)CC2)NC(=O)CCC(=O)NCCCOCCOCCOCCCNC(=O)CCC(=O)NCCCOCCOCCOCCCNC(=O)CCC(=O)NCCCOCCOCCOCCCNC(=O)CCCNC(=O)[C@@H](NC(=O)[C@H](CCCNC(=N)N)NC(=O)[C@H](C)NC(=O)[C@@H](NC(=O)[C@H](CCCCN)NC(=O)[C@H](CCC(N)=O)NC(=O)[C@H](C)NC(=O)[C@H](CC(C)C)NC(=O)[C@@H](NC(=O)[C@H](CCC(N)=O)NC(=O)[C@H](CC(C)C)NC(=O)[C@H](CC(=O)O)NC(=O)CNC(=O)[C@H](CCCNC(=N)N)NC(=O)[C@H](CC(C)C)NC(=O)[C@H](CC(N)=O)NC(=O)[C@@H]2CCCN2C(=O)[C@@H](NC(=O)[C@H](C)NC(=O)[C@H](CC(N)=O)NC(C)=O)C(C)C)C(C)C)C(C)C)[C@@H](C)O)C(N)=O)cc1C(C)C` (some centres unmarked) [(22)], the IC50 on NTR1 [1] came out at 9.1 nM. Moreover, at NTR1 [2], the concentration for a half-maximal effect (EC50) is over 50000 nM and the 50% inhibitory concentration (IC50) was found to be 21 nM.

In the case of `COc1cccc(OC)c1-c1cc(C(=O)NC2(C(=O)O)C3CC4CC(C3)CC2C4)nn1-c1ccc(C(=O)N(C)CCCN(C)CCCN(C)C(=O)CCN2C(=O)CC(SC[C@H](NC(=O)CCC(=O)NCCCOCCOCCOCCCNC(=O)CCC(=O)NCCCOCCOCCOCCCNC(=O)CCC(=O)NCCCOCCOCCOCCCNC(=O)[C@H](CCCCNC(=O)CN3CCN(CC(=O)O)CCN(CC(=O)O)CCN(CC(=O)O)CC3)NC(=O)CCC(=O)NCCCOCCOCCOCCCNC(=O)CCC(=O)NCCCOCCOCCOCCCNC(=O)CCC(=O)NCCCOCCOCCOCCCNC(=O)CCCNC(=O)[C@@H](NC(=O)[C@H](CCCNC(=N)N)NC(=O)[C@H](C)NC(=O)[C@@H](NC(=O)[C@H](CCCCN)NC(=O)[C@H](CCC(N)=O)NC(=O)[C@H](C)NC(=O)[C@H](CC(C)C)NC(=O)[C@@H](NC(=O)[C@H](CCC(N)=O)NC(=O)[C@H](CC(C)C)NC(=O)[C@H](CC(=O)O)NC(=O)CNC(=O)[C@H](CCCNC(=N)N)NC(=O)[C@H](CC(C)C)NC(=O)[C@H](CC(N)=O)NC(=O)[C@@H]3CCCN3C(=O)[C@@H](NC(=O)[C@H](C)NC(=O)[C@H](CC(N)=O)NC(C)=O)C(C)C)C(C)C)C(C)C)[C@@H](C)O)C(N)=O)C2=O)cc1C(C)C` (some centres unmarked) [(23)], at NTR1 [1], the half-maximal inhibitory concentration (IC50) is 6.7 nM. At NTR1 [2], this molecule yielded an EC50 of over 50000 nM and a half-inhibitory concentration (IC50) of 15 nM.

As for `COc1cccc(OC)c1-c1cc(C(=O)NC2(C(=O)O)C3CC4CC(C3)CC2C4)nn1-c1ccc(C(=O)N(C)CCCN(C)CCCN(C)C(=O)CCCC(=O)NCCCOCCOCCOCCCNC(=O)CCC(=O)NCCCOCCOCCOCCCNC(=O)CCC(=O)NCCCOCCOCCOCCCNC(=O)CCC(=O)N[C@@H](CC(N)=O)C(=O)N[C@@H](C)C(=O)N[C@H](C(=O)N2CCC[C@H]2C(=O)N[C@@H](CC(N)=O)C(=O)N[C@@H](CC(C)C)C(=O)N[C@@H](CCCNC(=N)N)C(=O)NCC(=O)N[C@@H](CC(=O)O)C(=O)N[C@@H](CC(C)C)C(=O)N[C@@H](CCC(N)=O)C(=O)N[C@H](C(=O)N[C@@H](CC(C)C)C(=O)N[C@@H](C)C(=O)N[C@@H](CCC(N)=O)C(=O)N[C@@H](CCCCN)C(=O)N[C@H](C(=O)N[C@@H](C)C(=O)N[C@@H](CCCNC(=N)N)C(=O)N[C@H](C(=O)NCCCC(=O)NCCCOCCOCCOCCCNC(=O)CCC(=O)N[C@@H](CCCCNC(=O)CN2CCN(CC(=O)O)CCN(CC(=O)O)CCN(CC(=O)O)CC2)C(N)=O)[C@@H](C)O)C(C)C)C(C)C)C(C)C)cc1C(C)C` (some centres unmarked) [(24)], at NTR1 [1], the IC50 is 9.9 nM. Besides, on NTR1 [2], the concentration giving a half-maximal response (EC50) was over 50000 nM and 38 nM corresponded to half-maximal inhibition (IC50).

In the case of `COc1cccc(OC)c1-c1cc(C(=O)NC2(C(=O)O)C3CC4CC(C3)CC2C4)nn1-c1ccc(C(=O)N(C)CCCN(C)CCCN(C)C(=O)CCCC(=O)NCCCOCCOCCOCCCNC(=O)CCC(=O)NCCCC[C@H](NC(=O)CCC(=O)NCCCOCCOCCOCCCNC(=O)CCCC(=O)N(C)CCCN(C)CCCN(C)C(=O)c2ccc(-n3nc(C(=O)NC4(C(=O)O)C5CC6CC(C5)CC4C6)cc3-c3c(OC)cccc3OC)c(C(C)C)c2)C(=O)NCCCOCCOCCOCCCNC(=O)CCC(=O)N[C@@H](CC(N)=O)C(=O)N[C@@H](C)C(=O)N[C@H](C(=O)N2CCC[C@H]2C(=O)N[C@@H](CC(N)=O)C(=O)N[C@@H](CC(C)C)C(=O)N[C@@H](CCCNC(=N)N)C(=O)NCC(=O)N[C@@H](CC(=O)O)C(=O)N[C@@H](CC(C)C)C(=O)N[C@@H](CCC(N)=O)C(=O)N[C@H](C(=O)N[C@@H](CC(C)C)C(=O)N[C@@H](C)C(=O)N[C@@H](CCC(N)=O)C(=O)N[C@@H](CCCCN)C(=O)N[C@H](C(=O)N[C@@H](C)C(=O)N[C@@H](CCCNC(=N)N)C(=O)N[C@H](C(=O)NCCCC(=O)NCCCOCCOCCOCCCNC(=O)CCC(=O)N[C@@H](CCCCNC(=O)CN2CCN(CC(=O)O)CCN(CC(=O)O)CCN(CC(=O)O)CC2)C(N)=O)[C@@H](C)O)C(C)C)C(C)C)C(C)C)cc1C(C)C` (some centres unmarked) [(25)], the values for the half-maximal inhibitory concentration (IC50) at NTR1 [1] and at NTR1 [2] were 7.5 nM and 12 nM, respectively. At NTR1 [2], this molecule came in with an EC50 of over 50000 nM.

Regarding `CNCCCN(C)CCCN(C)C(=O)c1ccc(-n2nc(C(=O)NC3(C(=O)O)C4CC5CC(C4)CC3C5)cc2-c2c(OC)cccc2OC)c(C(C)C)c1` (centres unmarked) [(III), 2-({5-(2,6-Dimethoxy-phenyl)-1-[2-isopropyl-4-(methyl-{3-[methyl-(3-methylamino-propyl)-amino]-propyl}-carbamoyl)-phenyl]-1H-pyrazole-3-carbonyl}-amino)-adamantane-2-carboxylic acid], the IC50 against NTR1 [3] amounted to 7.54 nM; at NTR1 [4], 0.87 nM.

A word on the IC50: it is the point on the concentration scale where inhibition reaches its midpoint. For orientation: EC50 means the concentration that produces a half-maximal response. High values mean a less potent agent, low ones a more potent agent.
